“Also recorded” adds a separate entry of the source. Starred links: 1 amine or outer side, 2 acyl side, 3 side chain; linkers in the order of their positions; H or OH if unused. Positions of bridges follow the written chain, without caps; N, C: chain ends. Non-standard residues stand in square brackets, D forms with d. Residues, ends and D or L forms follow the SMILES beside them. Chains are numbered I, II in the order given. Actinocin(9to1) = Cc1c2oc3c(C)ccc(C(=O)[*:1])c3nc-2c(C(=O)[*:2])c(N)c1=O; NMeV = CN[C@H](C(=O)O)C(C)C; Sec = N[C@@H](C[SeH])C(=O)O; Sar = CNCC(=O)O
What was measured:
[1] = system: GPX4 and other selenoprotein genes; test: Quantitative PCR of antioxidant/selenoprotein genes in neurons; type: cell-based, mice or rats
Experimental: (§1) Total RNA was prepared using the NucleoSpin RNA II kit (MACHEREYNAGEL) according to the manufacturer's protocol. Duplex real-time PCR reactions were performed with gene expression assays using 6-carboxyfluorescein-labeled probes (Applied Biosystems) for antioxidant enzymes. All expression levels were normalized to β-actin gene expression levels, which were determined with a VIC-labeled probe (Applied Biosystems). All experiments were performed using a Quant 6 Real-Time PCR System (Applied Biosystems).
(§2) Primary cortical neurons were obtained from either embryonic (E15) CD1 mice or embryonic (E17) Sprague-Dawley rats. Briefly, cortices were dissected, homogenized, and plated in minimum essential medium containing 10% fetal bovine serum (FBS), 5% horse serum, and 1% penicillin/streptomycin in 96-well plates, 6-well plates, or 10-cm dishes. Neurons were maintained at 37° C. with 5% CO2. All experiments were started at 24 hours after plating.

GPX4-deficient neurons = test: Survival of neurons with siRNA knockdown of GPX4; type: cell-based, mice or rats; conditions: 50 μM NAC, siGPX4
Excerpt: Knock down of GPX4 was achieved by using lipofectamine RNAimax (Thermo-Fisher) to transfect primary cortical neurons with specific siRNA against GPX4. Three different sequences of siRNA were used separately to validate target specificity as opposed to sequence specificity. Knockdown was validated by mRNA and protein.

[2] = ICP-MS measurement of selenium levels; set-up: species or system mouse; conditions: in vitro and in vivo after Se treatment
Experimental: FIG. 2M is a graph showing inductively coupled mass spectrometry (ICP-MS) measurement of selenium levels normalized to protein concentration in cortical neurons treated with 80 μM hemin and/or Se.
FIG. 5D is a graph showing inductively coupled mass spectrometry (ICP-MS) measurement of selenium levels normalized to protein concentration following ICH and ICH+2.5 μM Se in striatum at 24 h post treatment (n=8).

[3] = system: GPX4 and selenoprotein mRNA in striatum; type: in vivo, mouse; conditions: ICV injection
Experimental: FIG. 5A is a schematic showing ICV injection of dose dependent Se (1-5 μM) and collection of striatum 6 hours later to extract RNA for quantitative PCR.
Male C57BL/6 mice (8 to 10 weeks of age; Charles River) were anesthetized with isoflurane (2 to 5%) and placed on a stereotaxic frame. During the procedure, the animal's body temperature was maintained at 37° C. with a homeothermic blanket. With a nanomite syringe pump (Harvard Apparatus) and a Hamilton syringe, […] of collagenase (0.075 IU; Sigma) was infused into the right striatum at a flow rate of 0.120 ml/min. Relative to the bregma point, the stereotaxic coordinates of the injection were as follows: lateral, −0.20; anteroposterior, 0.62; and dorsoventral, −0.40. In control animals, […] of saline was infused. The treatment group received sodium selenite (1-5 μM) 2 hours after collagenase infusion directly into the ventricals. The control groups received vehicle (saline) alone. The animals were randomized to sham or ICH groups. The identity of the mice that received vehicle or Se was masked to surgeons who performed the ICH. […]
Total RNA was prepared using the NucleoSpin RNA II kit (MACHEREYNAGEL) according to the manufacturer's protocol. […] All expression levels were normalized to β-actin gene expression levels, which were determined with a VIC-labeled probe (Applied Biosystems). […]

primary cortical neurons [4] = test: In vitro ICH model: hemin-induced ferroptosis, MTT survival and Live/Dead assay; type: cell-based, mice or rats; conditions: for toxicity / therapeutic window in cultured neurons: in vitro, increasing concentrations
Experimental: as §2
Cell death was induced in primary cortical neurons and hippocampal HT22 cells by treatment with hemin ([…]; Sigma). For the neuroprotection studies, cells were treated with 80 μM hemin in the presence of sodium selenite (Sigma) diluted in water. Cell viability was analyzed 16 hours after treatment. Cells were rinsed with warm phosphate-buffered saline (PBS) and assessed by MTT assay. The fidelity of MTT assays in measuring viability was verified by calcein-AM/ethidium homodimer-1 staining (Live/Dead assay, Molecular Probes) following the manufacturer's instructions.

[5] = system: collagenase mouse model of ICH; test: Collagenase-induced mouse model of ICH: behavior, fluorojade, immunofluorescence; type: in vivo
Experimental: Male C57BL/6 mice (8 to 10 weeks of age; Charles River) were anesthetized with isoflurane (2 to 5%) and placed on a stereotaxic frame. During the procedure, the animal's body temperature was maintained at 37° C. with a homeothermic blanket. With a nanomite syringe pump (Harvard Apparatus) and a Hamilton syringe, […] of collagenase (0.075 IU; Sigma) was infused into the right striatum at a flow rate of 0.120 ml/min. Relative to the bregma point, the stereotaxic coordinates of the injection were as follows: lateral, −0.20; anteroposterior, 0.62; and dorsoventral, −0.40. In control animals, […] of saline was infused. […] The control groups received vehicle (saline) alone. The animals were randomized to sham or ICH groups. The identity of the mice that received vehicle or Se was masked to surgeons who performed the ICH. […] Proper postoperative care was taken until the animals recovered completely.
The corner task assessed the integrated sensorimotor function in both stimulation of vibrissae (sensory neglect) and rearing (motor response) (See Schallert et al., Neuropharmacology 39(5): p. 777-87 (2000)). Mice were placed between two cardboard pieces forming a corner with a 30° angle. While maintaining the 30° angle, the boards were gradually moved toward the mouse until the mouse approached the corner, reared upward, and turned 180° to face the open end. The direction (left or right) in which the mouse turned around was recorded for each trial. Ten trials were performed for each mouse. The adhesive tape removal task in mice was performed as previously described. Briefly, adhesive tape was placed on the planter region of the forward paw (right and left) of mice. The time from which the tape was applied to when the mouse successfully removed it was recorded for each paw. A maximum of 300 s for each paw was allowed.
For immunocytochemical experiments in the brain, three control mice with induced unilateral stroke and three selenium-treated mice with induced unilateral stroke were perfusion fixed with 4% PFA in PBS for 15 min. The brains were isolated and postfixed for 1 h in 4% PFA. After cryoprotection in a sucrose gradient, brain sections were cut at 30 μm.
Free-floating brain sections were blocked for 1 h in a PBS solution containing 3% bovine serum (Sigma), and 0.5% Triton X-100 (Biorad). Primary antibodies were diluted in the same solution and applied for 12 h, followed by incubation for 1 h with the appropriate secondary antibody, conjugated to Alexa 488 (1:1000; green fluorescence, Molecular Probes) or Alexa 568 (1:1000; red fluorescence, Molecular Probes). For nuclear labeling, ToPro was added to the mixture (1:15000, far red fluorescence, Invitrogen, T3605). […]

GPX4 mRNA = GPX4 mRNA in organs after intraperitoneal injection of peptides; type: in vivo, mouse; conditions: 12 μg/g intraperitoneal, 24 h
Experimental: FIG. 69B quantifies GPX4 mRNA levels 24 h following IP injection of SelPep (4-12 μg/g; n=3) in the striatum, cortex, heart or liver.
as §1

primary cortical neurons [6] = test: Oxidative stress-induced neuronal death: HCA-induced ferroptosis, MTT survival; type: cell-based, mice or rats; conditions: HCA 5 mM, survival at 24 h
Experimental: as §2
Primary cortical neurons and HT22 cells were exposed to 5 mM HCA (glutamate structural analog) to induce oxidative stress-induced cell death, and sodium selenite (Sigma) was applied in media. 24 hours after treatment with HCA, the cells were rinsed with warm PBS, and cell viability was assessed by MTT assay (Life Technologies) and calcein-AM/ethidium homodimer-1 staining (Live/Dead assay, Molecular Probes).

[7] = 12 μg/g IP from 2 h post-ICH, daily for 7 days, from day 3, significant by day 14

Compound: CC(=O)N[C@@H](CS)C(=O)O [NAC, N-acetylcysteine]
- effect on GPX4 expression ([1]; 50 μM NAC): no effect on GPX4 mRNA levels; also recorded: without affecting GPX4 expression
- survival of GPX4-deficient neurons (GPX4-deficient neurons): prevents cell death due to GPX4 molecular depletion; also recorded: protected GPX4-deficient neurons; also recorded: prevents cell death due to GPX4 knockdown

Compound: O=[Se](O)O [Se, Sodium selenite]
- selenium levels by ICP-MS [2]: significant increases in cellular selenium
- toxicity or death in mice ([3]; any concentration (1-5 μM)): no toxicity or death
- optimal Se concentration for inducing selenoprotein expression ([3]; uninjured mice, striatum 6 h later): 2.5 µM
- toxicity / therapeutic window in cultured neurons (primary cortical neurons [4]): parabolic dose response with a narrow therapeutic window

Compound: CC(C)C[C@H](NC(=O)[C@H](CC(N)=O)NC(=O)[C@H](C[SeH])NC(=O)[C@H](CCCCN)NC(=O)[C@H](C[SeH])NC(=O)[C@H](CCCCN)NC(=O)[C@H](CCCNC(=N)N)NC(=O)[C@H](CCCNC(=N)N)NC(=O)[C@H](CCCNC(=N)N)NC(=O)[C@H](CCC(N)=O)NC(=O)[C@H](CCCNC(=N)N)NC(=O)[C@H](CCCNC(=N)N)NC(=O)[C@H](CCCCN)NC(=O)[C@H](CCCCN)NC(=O)[C@H](CCCNC(=N)N)NC(=O)CNC(=O)[C@@H](N)Cc1ccc(O)cc1)C(=O)N[C@@H](CC(N)=O)C(N)=O [Tat-SelPep] (H-YGRKKRRQRRRK[Sec]K[Sec]NLN-NH2)
- GPX4, SeIP, TXNRD1, GPX3 and SelK mRNA ([1]; 1 μM peptide, 6 h post-treatment): induced significant increases
- cell death measured by Fluoro-Jade staining ([5]; 12 μg/g IP from 2 h post-ICH, daily for 7 days): reduced cell death
- sensory neglect task [5, 7]: improved
- spatial neglect task [5, 7]: improved
- behavior outcomes in animals overexpressing mSp1 ([5]; AAV8-mSp1 in striatum, 12 μg/g IP, day 14 post-stroke): fail to demonstrate significant behavior improvements
- GPX4 expression in heart, liver, striatum and cortex (GPX4 mRNA): induced significant expression of GPX4
- single cell analysis of cell viability and death (live/dead) (primary cortical neurons [4]; hemin 80 μM, 16 h, 1 μM peptide): prevented hemin induced ferroptosis and completely preserved cell bodies and neurites of neurons
- protection from hemin-induced ferroptosis (primary cortical neurons [4]; hemin 80 μM, survival at 16 h, MTT): concentration dependent protection
- toxicity / therapeutic window in cultured neurons (primary cortical neurons [4]): wide therapeutic window with no apparent toxicity
- protection from HCA-induced ferroptosis (primary cortical neurons [6]): concentration dependent protection

Compound: Cc1c2oc3c(C)ccc(C(=O)N[C@@H]4C(=O)N[C@H](C(C)C)C(=O)N5CCC[C@H]5C(=O)N(C)CC(=O)N(C)[C@@H](C(C)C)C(=O)O[C@@H]4C)c3nc-2c(C(=O)N[C@@H]2C(=O)N[C@H](C(C)C)C(=O)N3CCC[C@H]3C(=O)N(C)CC(=O)N(C)[C@@H](C(C)C)C(=O)O[C@@H]2C)c(N)c1=O [actinomycin-D] (I: T[dV]P[Sar][NMeV] / II: T[dV]P[Sar][NMeV]; ester I:1-I:C, II:1-II:C; linker I:N-II:N via Actinocin(9to1))
- Se-dependent increase in GPX4 mRNA ([1]; co-treatment with transcription inhibitor): inhibited Se-dependent increase in GPX4 mRNA
- protection against hemin toxicity induced by Se (primary cortical neurons [4]; co-treatment with transcription inhibitor, MTT): abrogated protection; also recorded: abolished protection against hemin toxicity

From patent publication US11078236B2, “Selenium-based therapies” (Burke Neurological Institute, priority 2017, dated 2021)
